The values that follow come from ChEMBL document CHEMBL1132081, “Design, synthesis, and structure-activity relationship studies of himbacine derived muscarinic receptor antagonists” (Bioorg Med Chem Lett, 1999).

Assay [1] deals with T1, Muscarinic acetylcholine receptor M2 (Homo sapiens, UniProt P08172).
T1 sequence (P08172 whole entry): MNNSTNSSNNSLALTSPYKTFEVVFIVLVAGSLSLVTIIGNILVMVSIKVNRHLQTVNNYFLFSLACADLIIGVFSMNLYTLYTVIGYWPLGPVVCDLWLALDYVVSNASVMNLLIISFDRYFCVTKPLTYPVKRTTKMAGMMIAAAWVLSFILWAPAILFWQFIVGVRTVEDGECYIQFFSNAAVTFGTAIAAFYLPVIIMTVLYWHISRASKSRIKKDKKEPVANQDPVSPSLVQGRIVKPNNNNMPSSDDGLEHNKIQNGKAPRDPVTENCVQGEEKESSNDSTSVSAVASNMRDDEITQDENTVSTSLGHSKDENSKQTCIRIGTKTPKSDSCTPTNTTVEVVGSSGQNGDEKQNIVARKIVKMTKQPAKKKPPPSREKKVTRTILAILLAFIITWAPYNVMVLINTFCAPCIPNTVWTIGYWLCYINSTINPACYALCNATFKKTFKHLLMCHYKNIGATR
As to the kind of experiment: Binding affinity towards human muscarinic M2 receptor in CHO-KI cells using [3H]- QNB as radioligand. Type of assay: cell-based.

Assay [2] has as its target T2, Muscarinic acetylcholine receptor M1 (Homo sapiens, UniProt P11229).
T2 sequence (P11229 whole entry): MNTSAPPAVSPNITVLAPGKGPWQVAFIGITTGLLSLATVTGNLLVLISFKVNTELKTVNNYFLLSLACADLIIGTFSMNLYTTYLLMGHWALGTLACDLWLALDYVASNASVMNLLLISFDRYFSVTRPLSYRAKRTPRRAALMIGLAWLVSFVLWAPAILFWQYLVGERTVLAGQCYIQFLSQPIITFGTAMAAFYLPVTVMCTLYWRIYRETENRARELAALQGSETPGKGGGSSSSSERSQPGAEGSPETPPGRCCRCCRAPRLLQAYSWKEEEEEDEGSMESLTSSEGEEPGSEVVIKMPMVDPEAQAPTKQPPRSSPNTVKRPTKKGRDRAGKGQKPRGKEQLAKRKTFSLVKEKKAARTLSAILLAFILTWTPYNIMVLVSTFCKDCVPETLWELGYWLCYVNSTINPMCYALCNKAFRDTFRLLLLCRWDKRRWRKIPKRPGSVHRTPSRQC
Description: Binding affinity towards human muscarinic M1 receptor in CHO-KI cells using [3H]- QNB as radioligand. It is filed as cell-based.

Each structure is given as a SMILES string.

For the molecule `C[C@@H]1OC(=O)[C@H]2C[C@H]3CCCC[C@@H]3[C@@H](CCCNC34CC5CC(CC(C5)C3)C4)[C@@H]12`, the Ki in assay [1] was found to be 0.026 µM; in assay [2], 0.136 µM.
The corresponding values for `C[C@@H]1OC(=O)[C@H]2C[C@H]3CCCC[C@@H]3[C@@H](CCCN3CCCC4CCCCC43)[C@@H]12` (stereo not given in full) are 0.013 µM and 0.038 µM.
As to `CC1CN(CCC[C@@H]2[C@H]3CCCC[C@@H]3C[C@@H]3C(=O)O[C@@H](C)[C@H]23)C(C)CN1` (stereo not given in full), the Ki in assay [1] was determined as 0.57 µM; in assay [2] it was 0.353 µM.
As to `C[C@@H]1OC(=O)[C@H]2C[C@H]3CCCC[C@@H]3[C@@H](CCCN3CCCC(C)(C)C3)[C@@H]12`, the Ki was found to be 0.224 µM in assay [1] and 0.416 µM in assay [2].
With `C[C@@H]1OC(=O)[C@H]2C[C@H]3CCCC[C@@H]3[C@@H](CCCN3CCOCC3)[C@@H]12`, the Ki in assay [1] worked out at 0.051 µM; in assay [2], 0.222 µM.
For the molecule `C[C@@H]1OC(=O)[C@H]2C[C@H]3CCCC[C@@H]3[C@@H](CCCN3CCCCC3)[C@@H]12`, the Ki stood at 0.352 µM in assay [1] and 0.427 µM in assay [2].
On the same counts, the results for `C[C@@H]1OC(=O)[C@H]2C[C@H]3CCCC[C@@H]3[C@@H](/C=C/[C@H]3CCC[C@H](C)N3C)[C@@H]12` [HIMBACINE] are 0.0484 µM and 0.0045 µM.
Take `CCC1CCCCN1CCC[C@@H]1[C@H]2CCCC[C@@H]2C[C@@H]2C(=O)O[C@@H](C)[C@H]12` (stereo not given in full): the Ki was determined as 0.209 µM in assay [1] and 0.341 µM in assay [2].
With `C[C@@H]1OC(=O)[C@H]2C[C@H]3CCCC[C@@H]3[C@@H](CCCN3CCCC(O)C3)[C@@H]12` (stereo not given in full), the Ki in assay [1] was found to be 0.148 µM; in assay [2], 1.53 µM.
The corresponding values for `C[C@@H]1OC(=O)[C@H]2C[C@H]3CCCC[C@@H]3[C@@H](CCCN3CCN(C(=O)OC(C)(C)C)CC3)[C@@H]12` are 0.485 µM and 0.445 µM.
On the same counts, the results for `CC1CN(CCC[C@@H]2[C@H]3CCCC[C@@H]3C[C@@H]3C(=O)O[C@@H](C)[C@H]23)CC(C)O1` (stereo not given in full) are 0.376 µM and 0.601 µM.
Consider `C[C@@H]1OC(=O)[C@H]2C[C@H]3CCCC[C@@H]3[C@@H](CCCN3CCC(O)CC3)[C@@H]12`, for which the Ki was over 0.28 µM in assay [1] and over 0.9 µM in assay [2].
As to `CC1CCCCN1CCC[C@@H]1[C@H]2CCCC[C@@H]2C[C@@H]2C(=O)O[C@@H](C)[C@H]12` (stereo not given in full), the Ki in assay [1] amounted to 0.275 µM; in assay [2], 0.399 µM.
For the molecule `CC1CCN(CCC[C@@H]2[C@H]3CCCC[C@@H]3C[C@@H]3C(=O)O[C@@H](C)[C@H]23)CC1`, the values for the Ki in assay [1] and in assay [2] were 0.283 µM and 0.554 µM, respectively.
For `C[C@@H]1CN(CCC[C@@H]2[C@H]3CCCC[C@@H]3C[C@@H]3C(=O)O[C@@H](C)[C@H]23)CCN1`, the Ki was over 0.5 µM in assay [1] and 0.857 µM in assay [2].
For `C[C@@H]1OC(=O)[C@H]2C[C@H]3CCCC[C@@H]3[C@@H](CCCN3CCNCC3)[C@@H]12`, the figures for the Ki in assay [1] and in assay [2] were over 0.042 µM and over 0.42 µM, respectively.
Take `C[C@@H]1OC(=O)[C@H]2C[C@H]3CCCC[C@@H]3[C@@H](CCCN3CCSCC3)[C@@H]12`: the figures for the Ki in assay [1] and in assay [2] were 0.189 µM and 0.179 µM, respectively.
With `CC1CN(CCC[C@@H]2[C@H]3CCCC[C@@H]3C[C@@H]3C(=O)O[C@@H](C)[C@H]23)CC(C)N1` (stereo not given in full), the Ki in assay [1] was over 0.5 µM; in assay [2], 1.36 µM.
In the case of `C[C@@H]1OC(=O)[C@H]2C[C@H]3CCCC[C@@H]3[C@@H](CCCN3CCN(C)CC3)[C@@H]12`, the Ki in assay [1] was 0.595 µM; in assay [2], 0.579 µM.
Regarding `C[C@@H]1OC(=O)[C@H]2C[C@H]3CCCC[C@@H]3[C@@H](CCCN3CCN[C@@H](C)C3)[C@@H]12`, the Ki is over 0.5 µM in assay [1] and 0.581 µM in assay [2].
For the molecule `C[C@@H]1OC(=O)[C@H]2C[C@H]3CCCC[C@@H]3[C@@H](CCCN3CCc4ccccc4C3)[C@@H]12`, the Ki is 0.184 µM in assay [1] and 0.304 µM in assay [2].
For the molecule `C[C@@H]1OC(=O)[C@H]2C[C@H]3CCCC[C@@H]3[C@@H](CCCN3CCC(N4CCCCC4)CC3)[C@@H]12`, the Ki in assay [1] is 0.65 µM; in assay [2], 0.312 µM.
Consider `C[C@@H]1OC(=O)[C@H]2C[C@H]3CCCC[C@@H]3[C@@H](CC[C@H]3CCC[C@H](C)N3C)[C@@H]12`, for which the Ki turned out to be 0.0322 µM in assay [1] and 0.0043 µM in assay [2].
The corresponding values for `CC1CCCN(CCC[C@@H]2[C@H]3CCCC[C@@H]3C[C@@H]3C(=O)O[C@@H](C)[C@H]23)C1` (stereo not given in full) are 0.312 µM and 0.376 µM.
As for `C[C@@H]1OC(=O)[C@H]2C[C@H]3CCCC[C@@H]3[C@@H](CCCN3CCN(C4CCCCC4)CC3)[C@@H]12`, the Ki in assay [1] was 0.52 µM; in assay [2], 0.464 µM.

A word on the Ki: it is a measure of affinity in units of concentration, obtained from inhibition or displacement. Lower therefore signals a stronger hold on the target.
